Assays:
RhoB protein levels = assay: RhoB protein level by Western blotting in NIH3T3 cells; format: cell-based; conditions: NIH3T3, 5-FU for 36 hrs (FIG. 2C)
H-Ras/3T3 cells = assay: Invasion through […]-coated transfilters, H-Ras/3T3 cells; format: cell-based; conditions: H-Ras/3T3 cells (FIG. 9A)
Protocol: (§1) HRas/3T3 cells (FIG. 9A) and PANC-1 cells (FIG. 9B) were transiently transfected with pcDNA3 vector control, H-Ras61L, CA-Akt, or WT-Akt in the presence or absence of RhoA, RhoB, or pcDNA3 for 36 hours. The cells were then split and analyzed for their invading capabilities through […]-coated transfilters as described in the Materials and Methods section. PANC-1 and PC3 cells (FIG. 9C) were transiently transfected with pcDNA3, with H-Ras61L in the presence or absence of RhoA, or RhoB for 36 hours. The cells were then serum-starved for another 36 hours; the conditioned medium was collected and 20 μg protein were analyzed for MMP-2 expression by Western Blotting.
(§2) Whether RhoB can also antagonize cell invasion was evaluated. To this end, H-Ras/3T3 and PANC-1 cells were similarly transfected as above with various oncogenes along with RhoA or RhoB, then seeded onto […]-coated poly-hydrocarbonate filters mounted in the middle of a Boyden transwell apparatus as described under Methods. […] Furthermore, transfection with CA-Akt or WT-Akt enhanced invasion; and RhoB, not RhoA, inhibited this enhancement of invasion (FIGS. 9A and 9B).

PANC-1 cells = assay: Invasion through […]-coated transfilters, PANC-1 cells; format: cell-based, human; conditions: PANC-1 cells (FIG. 9B)
Protocol: as §1, §2

Molecule: O=c1[nH]cc(F)c(=O)[nH]1 [5-FU, 5-fluorouracil]
- induction of RhoB protein levels (RhoB protein levels): 3 fold

Molecule: RhoA: closely related family member sharing 86% sequence identity with RhoB; wild-type, in HA-tagged pcDNA3, transfected as control
- invasion through MATRIGEL (H-Ras/3T3 cells): invaded
- invasion through MATRIGEL (PANC-1 cells): invaded

Reference: patent US7629310B2, “RhoB as a suppressor of cancer cell growth, cell transformation, and metastasis” (University of South Florida, priority 2000, dated 2009)
